Assay results as given in US5248667A, “Method of treating psoriasis using synthetic peptide compositions” (The United States of America as represented by the …, priority 1991, dated 1993).

Tested on: normal volunteers
Assay: CNS or immunologic toxicity in volunteers
Assay type: in vivo, human
Conditions: all patients / normal volunteers
Description: 1. 6 male research subjects with histories of substance abuse, childhood dyslexia, and depression, have received Peptide T intravenously in doses ranging from 0.033 mg/kg to 0.133 mg/kg per day for seven days.
2. a WM HIV seronegative normal volunteer received Peptide T both intranasally and sublingually at 12.5 mg BID for one week coincidentally reported improvement in multiple red, scaling pruritic areas located in scalp and lower neck areas. This individual has a history of mild psoriasis which, by personal choice, has been treated with only topical treatments including hydrocortisone, coal tar derivatives, and calamine lotion.
3. No evidence of either CNS or immunologic toxicity associated with drug administration was aobserved in any of these patients in any of these normal volunteers.

C[C@@H](N)C(=O)N[C@@H](CO)C(=O)N[C@H](C(=O)N[C@H](C(=O)N[C@H](C(=O)N[C@@H](CC(N)=O)C(=O)N[C@@H](Cc1ccc(O)cc1)C(=O)N[C@H](C(N)=O)[C@@H](C)O)[C@@H](C)O)[C@@H](C)O)[C@@H](C)O [Peptide T, D-Ala-Ser-Thr-Thr-Thr-Asn-Tyr-Thr-amide]
CNS or immunologic toxicity associated with drug administration: No evidence
